Where two headings read alike, the source gives them in different places. Positions of bridges follow the written chain, without caps; N, C: chain ends. Non-standard residues stand in square brackets, D forms with d. Residues, ends and D or L forms follow the SMILES beside them. dPhe(4-CN) = N#Cc1ccc(C[C@@H](N)C(=O)O)cc1; Orn = NCCC[C@H](N)C(=O)O
Columns and labels:
MC1-R = test: Competitive inhibition binding assay using [I125]-NDP-α-MSH, MC1-R; settings: membranes of B-16 mouse melanoma cells (endogenous MC1-R), in some instances HEK-293 hMC1-R
Description: 7.1 Competitive Inhibition Assay using [I^125]-NDP-α-MSH.
A competitive inhibition binding assay was performed for exemplified peptides according to the invention using membrane homogenates prepared from HEK-293 cells that express recombinant hMC4-R, hMC3-R, or hMC5-R, and from B-16 mouse melanoma cells (containing endogenous MC1-R). In some instances, HEK-293 cells that express recombinant hMC1-R were employed. Assays were performed in 96 well GF/B Millipore multiscreen filtration plates (MAFB NOB10) pre-coated with 0.5% bovine serum albumin (Fraction V). Membrane homogenates were incubated with 0.2 nM (for hMC4-R) 0.4 nM (for MC3-R and MC5-R) or 0.1 nM (for mouse B16 MC1-R or hMC1-R) [I^125]-NDP-α-MSH (Perkin Elmer) and increasing concentrations of test peptides of the present invention in buffer containing 25 mM HEPES buffer (pH 7.5) with 100 mM NaCl, 2 mM CaCl2, 2 mM MgCl2, 0.3 mM 1,10-phenanthroline, and 0.2% bovine serum albumin. After incubation for 60 minutes at 37° C., the assay mixture was filtered and the membranes washed three times with ice-cold buffer. Filters were dried and counted in a gamma counter for bound radioactivity. […] Maximal specific binding (100%) was defined as the difference in radioactivity (cpm) bound to cell membranes in the absence and presence of 1 μM NDP-α-MSH. […] Each assay was conducted in triplicate and the actual mean values are described, with results less than 0% reported as 0%. Ki values for test peptides of the present invention were determined using Graph-Pad Prism® curve-fitting software.

hMC4-R [1] = target: T1, hMC4-R (Homo sapiens (Human), UniProt P32245); test: Competitive inhibition binding assay using [I125]-NDP-α-MSH, hMC4-R; settings: membranes of HEK-293 cells expressing recombinant hMC4-R, read-out: MC4-R Ki
T1 sequence (P32245 whole entry): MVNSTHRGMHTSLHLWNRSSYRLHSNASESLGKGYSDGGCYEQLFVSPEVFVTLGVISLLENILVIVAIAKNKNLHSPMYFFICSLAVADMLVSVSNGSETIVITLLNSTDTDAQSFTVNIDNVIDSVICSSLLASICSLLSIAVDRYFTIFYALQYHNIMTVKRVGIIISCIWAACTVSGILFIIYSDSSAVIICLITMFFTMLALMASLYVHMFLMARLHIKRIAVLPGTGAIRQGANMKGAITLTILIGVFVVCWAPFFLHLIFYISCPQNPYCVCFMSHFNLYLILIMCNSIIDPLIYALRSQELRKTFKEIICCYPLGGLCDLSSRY

hMC4-R [2] = target: T1, hMC4-R; test: High and low density hMC4-R functional assay (cAMP, HEK293-T-REx-MC4-R cells); type: cell-based; settings: for Emax: NDP-α-MSH = 100%, read-out: Intrinsic Activity (%)
[3] = 0.1 ng/mL Doxycycline (low density hMC4-R system)
[4] = 10 ng/mL Doxycycline (high density hMC4-R system)

Ki (MC1-R) | Ki (hMC4-R [1]) | EC50 (hMC4-R [2]; [3]) | Emax (hMC4-R [2]; [3]) | EC50 (hMC4-R [2]; [4]) | Emax (hMC4-R [2]; [4]) | SMILES
0.3 nM | 0.08 nM | 0.07 nM | 28% | 0.16 nM | 100% | CC(=O)N[C@@H](CCCNC(=N)N)C(=O)N[C@H]1CCC(=O)NCCC[C@@H](C(N)=O)NC(=O)[C@H](Cc2c[nH]c3ccccc23)NC(=O)[C@H](CCCNC(=N)N)NC(=O)[C@@H](Cc2ccc(Cl)cc2)NC(=O)[C@H](CCN)NC1=O [Example 3, Ac-Arg-cyclo(Glu-Dab-D-Phe(4-Cl)-Arg-Trp-Orn)-NH2]
0.5 nM | 0.055 nM |  | 11% | 0.245 nM | 100% | CC(=O)N[C@@H](CCCNC(=N)N)C(=O)N[C@H]1CCC(=O)NCCC[C@@H](C(N)=O)NC(=O)[C@H](Cc2c[nH]c3ccccc23)NC(=O)[C@H](CCCNC(=N)N)NC(=O)[C@@H](Cc2ccc(Cl)cc2Cl)NC(=O)[C@H](CCN)NC1=O [Example 4, Ac-Arg-cyclo(Glu-Dab-D-Phe(2,4-diCl)-Arg-Trp-Orn)-NH2]
0.2 nM | 0.055 nM |  | 5% | 0.38 nM | 92% | CC(=O)N[C@@H](CCCNC(=N)N)C(=O)N[C@H]1CCC(=O)NCCC[C@@H](C(N)=O)NC(=O)[C@H](Cc2c[nH]c3ccccc23)NC(=O)[C@H](CCCNC(=N)N)NC(=O)[C@@H](Cc2ccc(Cl)c(Cl)c2)NC(=O)[C@H](CCN)NC1=O [Example 5, Ac-Arg-cyclo(Glu-Dab-D-Phe(3,4-diCl)-Arg-Trp-Orn)-NH2]
43 nM | 33 nM | 37 nM | 29% | 2 nM | 100% | CC(=O)N[C@@H](CCCNC(=N)N)C(=O)N[C@H]1CCC(=O)NCCC[C@@H](C(N)=O)NC(=O)[C@H](Cc2c[nH]c3ccccc23)NC(=O)[C@H](CCCNC(=N)N)NC(=O)[C@@H](Cc2cccc(C#N)c2)NC(=O)[C@H](CCN)NC1=O [Example 6, Ac-Arg-cyclo(Glu-Dab-D-Phe(3-CN)-Arg-Trp-Orn)-NH2]
2 nM | 2 nM | 0.45 nM | 77% | 0.17 nM | 94% | CC(=O)N[C@@H](CCCNC(=N)N)C(=O)N[C@H]1CCC(=O)NCCC[C@@H](C(N)=O)NC(=O)[C@H](Cc2c[nH]c3ccccc23)NC(=O)[C@H](CCCNC(=N)N)NC(=O)[C@@H](Cc2cccc(F)c2)NC(=O)[C@H](CCN)NC1=O [Example 10, Ac-Arg-cyclo(Glu-Dab-D-Phe(3-F)-Arg-Trp-Orn)-NH2]
0.5 nM | 0.25 nM | 0.065 nM | 83% | 0.06 nM | 90% | CC(=O)N[C@@H](CCCNC(=N)N)C(=O)N[C@H]1CCC(=O)NCCC[C@@H](C(N)=O)NC(=O)[C@H](Cc2c[nH]c3ccccc23)NC(=O)[C@H](CCCNC(=N)N)NC(=O)[C@@H](Cc2ccc(F)cc2)NC(=O)[C@H](CCN)NC1=O [Example 11, Ac-Arg-cyclo(Glu-Dab-D-Phe(4-F)-Arg-Trp-Orn)-NH2]
3 nM | 0.6 nM | 0.125 nM | 85% | 0.06 nM | 96% | CC(=O)N[C@@H](CCCNC(=N)N)C(=O)N[C@H]1CCC(=O)NCCC[C@@H](C(N)=O)NC(=O)[C@H](Cc2c[nH]c3ccccc23)NC(=O)[C@H](CCCNC(=N)N)NC(=O)[C@@H](Cc2ccccc2C(F)(F)F)NC(=O)[C@H](CCN)NC1=O [Example 13, Ac-Arg-cyclo(Glu-Dab-D-Phe(2-CF3)-Arg-Trp-Orn)-NH2]
0.15 nM | 0.25 nM | 0.15 nM | 28% | 0.16 nM | 97% | COc1ccc(C[C@H]2NC(=O)[C@H](CCN)NC(=O)[C@@H](NC(=O)[C@H](CCCNC(=N)N)NC(C)=O)CCC(=O)NCCC[C@@H](C(N)=O)NC(=O)[C@H](Cc3c[nH]c4ccccc34)NC(=O)[C@H](CCCNC(=N)N)NC2=O)cc1 [Example 16, Ac-Arg-cyclo(Glu-Dab-D-Phe(4-OMe)-Arg-Trp-Orn)-NH2]
300 nM | 8 nM | 7 nM | 33% |  | 98% | CC(=O)N[C@@H](CCCNC(=N)N)C(=O)N[C@H]1CCC(=O)NCCC[C@@H](C(N)=O)NC(=O)[C@H](Cc2c[nH]c3ccccc23)NC(=O)[C@H](CCCNC(=N)N)NC(=O)[C@@H](Cc2ccccc2Cl)NC(=O)[C@H](CO)NC1=O [Example 31, Ac-Arg-cyclo(Glu-Ser-D-Phe(2-Cl)-Arg-Trp-Orn)-NH2]
540 nM | 11 nM | 18 nM | 34% |  | 96% | CC(=O)N[C@@H](CCCNC(=N)N)C(=O)N[C@H]1CCC(=O)NCCC[C@@H](C(N)=O)NC(=O)[C@H](Cc2c[nH]c3ccccc23)NC(=O)[C@H](CCCNC(=N)N)NC(=O)[C@@H](Cc2ccccc2Cl)NC(=O)[C@H]([C@@H](C)O)NC1=O [Example 32, Ac-Arg-cyclo(Glu-Thr-D-Phe(2-Cl)-Arg-Trp-Orn)-NH2]
143 nM | 1 nM | 1 nM | 41% | 0.153 nM | 98% | CC(=O)N[C@@H](CCCNC(=N)N)C(=O)N[C@H]1CCC(=O)NCCC[C@@H](C(N)=O)NC(=O)[C@H](Cc2c[nH]c3ccccc23)NC(=O)[C@H](CCCNC(=N)N)NC(=O)[C@@H](Cc2ccccc2Cl)NC(=O)[C@@H]2C[C@@H](O)CN2C1=O [Example 33, Ac-Arg-cyclo(Glu-Hyp-D-Phe(2-Cl)-Arg-Trp-Orn)-NH2]
128 nM | 7 nM | 1 nM | 79% |  | 97% | CC(=O)N[C@@H](CCCNC(=N)N)C(=O)N[C@H]1CCC(=O)NCCC[C@@H](C(N)=O)NC(=O)[C@H](Cc2c[nH]c3ccccc23)NC(=O)[C@H](CCCNC(=N)N)NC(=O)[C@@H](Cc2ccccc2Cl)NC(=O)[C@H](CCC(N)=O)NC1=O [Example 34, Ac-Arg-cyclo(Glu-Gln-D-Phe(2-Cl)-Arg-Trp-Orn)-NH2]
380 nM | 6 nM |  | 8% | 1 nM | 89% | CC(=O)N[C@@H](CCCNC(=N)N)C(=O)N[C@H]1CCC(=O)NCCC[C@@H](C(N)=O)NC(=O)[C@H](Cc2c[nH]c3ccccc23)NC(=O)[C@H](CCCNC(=N)N)NC(=O)[C@@H](Cc2cccc(Cl)c2)NC(=O)[C@H]([C@@H](C)O)NC1=O [Example 36, Ac-Arg-cyclo(Glu-Thr-D-Phe(3-Cl)-Arg-Trp-Orn)-NH2]
430 nM | 2 nM |  | 6% | 0.55 nM | 90% | CC(=O)N[C@@H](CCCNC(=N)N)C(=O)N[C@H]1CCC(=O)NCCC[C@@H](C(N)=O)NC(=O)[C@H](Cc2c[nH]c3ccccc23)NC(=O)[C@H](CCCNC(=N)N)NC(=O)[C@@H](Cc2cccc(Cl)c2)NC(=O)[C@@H]2C[C@@H](O)CN2C1=O [Example 37, Ac-Arg-cyclo(Glu-Hyp-D-Phe(3-Cl)-Arg-Trp-Orn)-NH2]
290 nM | 3 nM | 2 nM | 31% |  | 97% | CC(=O)N[C@@H](CCCNC(=N)N)C(=O)N[C@H]1CCC(=O)NCCC[C@@H](C(N)=O)NC(=O)[C@H](Cc2c[nH]c3ccccc23)NC(=O)[C@H](CCCNC(=N)N)NC(=O)[C@@H](Cc2cccc(Cl)c2)NC(=O)[C@H](CCC(N)=O)NC1=O [Example 38, Ac-Arg-cyclo(Glu-Gln-D-Phe(3-Cl)-Arg-Trp-Orn)-NH2]
1550 nM | 4 nM |  | 4% | 1 nM | 79% | CC(=O)N[C@@H](CCCNC(=N)N)C(=O)N[C@H]1CCC(=O)NCCC[C@@H](C(N)=O)NC(=O)[C@H](Cc2c[nH]c3ccccc23)NC(=O)[C@H](CCCNC(=N)N)NC(=O)[C@@H](Cc2ccc(C#N)cc2)NC(=O)[C@@H]2CCCN2C1=O [Example 39, Ac-Arg-cyclo(Glu-Pro-D-Phe(4-CN)-Arg-Trp-Orn)-NH2]
880 nM | 2 nM |  | 8% | 0.5 nM | 93% | CC(=O)N[C@@H](CCCNC(=N)N)C(=O)N[C@H]1CCC(=O)NCCC[C@@H](C(N)=O)NC(=O)[C@H](Cc2c[nH]c3ccccc23)NC(=O)[C@H](CCCNC(=N)N)NC(=O)[C@@H](Cc2ccc(C#N)cc2)NC(=O)[C@@H]2C[C@@H](O)CN2C1=O [Example 40, Ac-Arg-cyclo(Glu-Hyp-D-Phe(4-CN)-Arg-Trp-Orn)-NH2]
4300 nM | 3 nM |  | 5% | 0.8 nM | 84% | CC(=O)N[C@@H](CCCNC(=N)N)C(=O)N[C@H]1CCC(=O)NCCC[C@@H](C(N)=O)NC(=O)[C@H](Cc2c[nH]c3ccccc23)NC(=O)[C@H](CCCNC(=N)N)NC(=O)[C@@H](Cc2ccc(C#N)cc2)NC(=O)[C@H](C)NC1=O [Example 41, Ac-Arg-cyclo(Glu-Ala-D-Phe(4-CN)-Arg-Trp-Orn)-NH2] (Ac-REA[dPhe(4-CN)]RW[Orn]-NH2; lactam 2-7)
